The source of these data is patent US20070191337A1, “Annellated carbamyl-aza-heterocyclic compounds, a focused library, pharmaceutical compositions, and methods of preparing the same” (priority 2004, published 2007).

Assay in all cases: Anticancer activity: growth inhibition in tissue culture (Alamar Blue)
Common to all, as to type: cell-based
In general terms: Resazurin is reduced to fluorescent resorufin, in cell work by metabolically active cells.

Assay [1] has as its system DU-145 (carcinoma of the brain). To be noted: DU-145 cells, 30 μM, 48 hours, Alamar Blue fluorescence; result in words. The procedure: (§1) A focused library was compiled to include compounds of general formula 1, as shown in Tables 1.01 to 1.23, and tested for anticancer activity. Anticancer activity of the compounds was measured by their capacity to kill cancerous cells in a tissue culture. Three cell lines representing three types of cancerous tumors were chosen, in particular: DLD-1 (adenocarcinoma of the rectum), DU-145 ([…]), and T-47D (tumor of the mammary gland). All the cell cultures were received from the American Tissue Culture Collection (ATCC). The efficiency of the compounds was assessed by measuring the number of […] cells following treatment with the test compounds over 48 hours. The cells were seeded at a concentration of 5*10^3 cells per hole of a standard 96-hole plate and left overnight for cells to be attached to the hole bottom. Whereupon the test compounds were added to the cells at an ultimate concentration of 30 μM, and the plates were left for 48 hours in an incubator at 37° C. maintaining the 5% CO2/95% air atmosphere at 100% humidity. At the end of the experiment, the medium with the compounds was sucked out of all the holes, and the holes were rinsed twice with physiological solution. […] of Alamar Blue solution was added to each hole, and fluorescence (λex=531 nm, λem=589 nm) was measured immediately after addition and 2 hours thereafter. The rate of fluorescence growth was proportional to the number of cells that survived incubation with the test compounds [John O'Brien, Ian Wilson, Terry Orton and Francois Pognan, “Investigation of the Alamar Blue (resazurin) Fluorescent Dye for the Assessment of Mammalian Cell Cytotoxicity.” Eur. J. Biochem. 2000,b 267, 5421-5426]. The proportion of cell growth suppression was found from the following equation: % of growth inhibition=((ΔΦk−ΔΦi)/ΔΦk)*100%, wherein: ΔΦ means increase in fluorescence over […] following addition of the Alamar Blue solution, and the subscripts […] and i mean, respectively, control cells (grown without any compounds added) and experimental cells (grown in the presence of test compounds).

In assay [2] the test system is T-47D (tumor of the mammary gland). Particulars: T-47D cells, 30 μM, 48 hours, Alamar Blue fluorescence; result in words. As to the method:
as §1

The test system of assay [3] is DLD-1 (adenocarcinoma of the rectum). To be noted: DLD-1 cells, 30 μM, 48 hours, Alamar Blue fluorescence; result in words. As to the method: as §1

In the case of `CCc1ccc(-c2cc3n(n2)CC(C)(C(=O)NC2CCCCC2)N(CCN2CCCC2)C3=O)cc1` (stereo not drawn) [1.5(3){50}, cyclohexylamide of 6-methyl-4-oxo-5-(2-pyrrolidin-1-yl-ethyl)-2-(4-ethylphenyl)-4,5,6,7-tetrahydropyrazolo[1,5-a]pyrazine-6-carbonic acid], the “suppression of tumor cell growth (% of growth inhibition)” value in assay [1], in assay [2] and in assay [3] was “equally good at suppressing cell growth in all three cancer tumors” in each case.
